Measurements reported in article PMC12377202, “Design, synthesis, and cytotoxic evaluation of quinazoline-based derivatives as VEGER-2 inhibitors: comparative study against EGFR kinase activity, induction of apoptosis, and molecular docking study” (RSC Advances, 2025).
“And” between values parts separate entries of the source, which are not always exact repeats. Equal values may be shown once.

Experiments:
caspase-9 = experiment: Caspase-9 expression level in HepG-2 cells; assay type: cell-based, human; details: for Caspase-9 ± SE: HepG-2, at IC50 concentrations, control 11.01
Procedure: (§1) All synthesized compounds were tested at their cytotoxic concentrations in HepG-2 cells for analysis of gene expression levels of apoptotic markers caspase-3, caspase-9, TNF-α, and IL-6 proteins, and only two active compounds were tested for BAX and Bcl-2 proteins.
(§2) through Flow cytometric analysis.
(§3) Pellets were collected again and incubated with
(§4) Total RNA from vehicle-treated
(§5) (Thermo Scientific, USA).
(§6) All experiments were performed in […]

K-562 = experiment: MTT anti-proliferative assay, K-562; assay type: cell-based, human; details: Homo sapiens, K562
IL-6R = IL-6R level in HepG-2 cells; assay type: cell-based, human
Procedure: as §1, §2, §3, §4, §5, §6

Bcl-2 = Bcl-2 gene expression in HepG-2 cells; assay type: cell-based, human
Procedure: as §1, §2, §3, §4, §5, §6

caspase-3 = experiment: Caspase-3 expression level in HepG-2 cells; assay type: cell-based, human; details: for Caspase-3 ± SE: HepG-2, at IC50 concentrations, control 0.460
Procedure: as §1, §2, §3, §4, §5, §6

EGFR = EGFR (Homo sapiens, UniProt P00533); experiment: EGFR kinase inhibition assay (ELISA kit)
HepG-2 = experiment: MTT anti-proliferative assay, HepG-2; assay type: cell-based, human; details: Homo sapiens, HepG2
BAX = BAX gene expression in HepG-2 cells; assay type: cell-based, human
Procedure: as §1, §2, §3, §4, §5, §6

TNF-alpha = TNF-alpha level in HepG-2 cells; assay type: cell-based, human; details: control 43.48
Procedure: as §1, §2, §3, §4, §5, §6

VEGFR-2 = VEGFR-2 (Homo sapiens, UniProt P35968); experiment: In vitro VEGFR-2 inhibitory assay (ELISA kit); details: VEGFR-2 kinase
MCF-7 = experiment: MTT anti-proliferative assay, MCF-7; assay type: cell-based, human; details: Homo sapiens, MCF7
HepG-2 cells = experiment: Cell cycle analysis (PI staining, flow cytometry); assay type: cell-based, human
Procedure: In order to cause cytotoxicity, anticancer medicines must stop cell division at specific checkpoints, which are discrete stages of the cell cycle.
Propidium iodide (PI) staining and flow cytometry analysis[74,75] were used to analyze the cell cycle for derivatives 8a and 9a, as illustrated in the SI.
as §2, §3, §4, §5, §6

BAX/Bcl-2 = BAX/Bcl-2 ratio in HepG-2 cells; assay type: cell-based, human; details: control 0.1260
Procedure: as §1, §2, §3, §4, §5, §6

Chain of EGFR (P00533 25-1210): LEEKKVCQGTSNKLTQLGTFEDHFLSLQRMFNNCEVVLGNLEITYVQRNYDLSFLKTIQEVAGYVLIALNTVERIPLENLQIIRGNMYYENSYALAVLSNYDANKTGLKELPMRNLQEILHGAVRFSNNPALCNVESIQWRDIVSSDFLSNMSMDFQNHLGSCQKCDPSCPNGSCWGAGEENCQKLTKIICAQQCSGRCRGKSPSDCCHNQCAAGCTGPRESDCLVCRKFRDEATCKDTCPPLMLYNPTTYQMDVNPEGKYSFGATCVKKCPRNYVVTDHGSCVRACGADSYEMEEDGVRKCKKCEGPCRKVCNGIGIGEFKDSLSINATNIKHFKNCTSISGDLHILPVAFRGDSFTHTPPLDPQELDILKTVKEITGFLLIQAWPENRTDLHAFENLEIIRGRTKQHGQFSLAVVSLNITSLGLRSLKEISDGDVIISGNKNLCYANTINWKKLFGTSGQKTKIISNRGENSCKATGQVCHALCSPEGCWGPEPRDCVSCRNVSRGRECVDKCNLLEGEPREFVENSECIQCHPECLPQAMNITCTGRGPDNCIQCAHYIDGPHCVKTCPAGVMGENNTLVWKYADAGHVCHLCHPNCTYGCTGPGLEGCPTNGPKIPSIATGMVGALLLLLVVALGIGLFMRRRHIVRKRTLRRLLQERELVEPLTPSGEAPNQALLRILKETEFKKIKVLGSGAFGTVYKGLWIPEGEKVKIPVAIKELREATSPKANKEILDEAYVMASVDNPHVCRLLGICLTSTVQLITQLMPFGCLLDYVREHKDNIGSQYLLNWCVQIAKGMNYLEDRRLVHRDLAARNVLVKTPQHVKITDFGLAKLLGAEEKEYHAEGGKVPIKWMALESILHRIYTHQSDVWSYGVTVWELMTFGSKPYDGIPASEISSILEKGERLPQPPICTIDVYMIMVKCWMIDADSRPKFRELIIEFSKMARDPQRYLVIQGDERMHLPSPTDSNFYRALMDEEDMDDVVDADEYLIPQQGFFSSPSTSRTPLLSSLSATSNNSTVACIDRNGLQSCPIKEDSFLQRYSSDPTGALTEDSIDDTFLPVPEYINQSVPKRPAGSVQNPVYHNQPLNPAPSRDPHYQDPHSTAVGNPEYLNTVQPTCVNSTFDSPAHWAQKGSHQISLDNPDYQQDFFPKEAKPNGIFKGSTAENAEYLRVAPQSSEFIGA
Chain of VEGFR-2 (P35968 20-1356): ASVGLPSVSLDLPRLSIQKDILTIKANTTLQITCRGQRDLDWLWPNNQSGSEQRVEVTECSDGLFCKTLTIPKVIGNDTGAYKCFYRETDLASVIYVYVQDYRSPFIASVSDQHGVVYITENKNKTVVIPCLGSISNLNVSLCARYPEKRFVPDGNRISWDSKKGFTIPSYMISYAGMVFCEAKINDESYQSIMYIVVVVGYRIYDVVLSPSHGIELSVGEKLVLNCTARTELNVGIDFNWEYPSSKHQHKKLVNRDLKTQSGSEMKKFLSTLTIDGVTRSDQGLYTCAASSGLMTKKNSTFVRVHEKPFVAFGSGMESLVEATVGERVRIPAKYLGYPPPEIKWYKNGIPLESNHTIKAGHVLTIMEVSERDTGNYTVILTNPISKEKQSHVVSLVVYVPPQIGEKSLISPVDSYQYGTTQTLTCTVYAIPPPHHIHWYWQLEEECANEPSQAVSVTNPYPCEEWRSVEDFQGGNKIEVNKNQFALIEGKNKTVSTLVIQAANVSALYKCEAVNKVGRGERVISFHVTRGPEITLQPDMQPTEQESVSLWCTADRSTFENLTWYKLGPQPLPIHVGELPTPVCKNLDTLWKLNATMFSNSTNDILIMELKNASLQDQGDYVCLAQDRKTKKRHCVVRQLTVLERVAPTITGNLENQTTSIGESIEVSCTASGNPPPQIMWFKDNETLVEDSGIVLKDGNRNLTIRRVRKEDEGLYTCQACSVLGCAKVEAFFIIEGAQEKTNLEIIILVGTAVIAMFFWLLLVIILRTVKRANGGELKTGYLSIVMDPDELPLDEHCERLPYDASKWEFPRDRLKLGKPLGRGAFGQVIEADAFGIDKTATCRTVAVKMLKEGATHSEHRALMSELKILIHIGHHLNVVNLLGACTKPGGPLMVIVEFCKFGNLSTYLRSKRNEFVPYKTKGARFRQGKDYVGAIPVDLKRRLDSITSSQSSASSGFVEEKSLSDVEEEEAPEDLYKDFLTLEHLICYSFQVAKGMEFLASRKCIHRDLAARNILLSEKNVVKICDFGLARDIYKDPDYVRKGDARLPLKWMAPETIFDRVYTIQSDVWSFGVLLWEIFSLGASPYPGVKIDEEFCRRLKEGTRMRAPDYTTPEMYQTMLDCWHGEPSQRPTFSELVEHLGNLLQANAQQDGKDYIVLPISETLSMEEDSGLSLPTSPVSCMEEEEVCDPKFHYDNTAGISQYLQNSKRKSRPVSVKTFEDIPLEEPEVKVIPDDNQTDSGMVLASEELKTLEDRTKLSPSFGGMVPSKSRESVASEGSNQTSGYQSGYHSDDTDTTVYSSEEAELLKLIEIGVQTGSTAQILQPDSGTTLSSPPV

Activity % (EGFR; HepG2): 16.790% | Inhibition % (EGFR; HepG2): 83.210% | Activity % (EGFR; K-562): 33.902% | Inhibition % (EGFR; K-562): 66.098% | Activity % (EGFR; MCF7): 20.242% | Inhibition % (EGFR; MCF7): 79.758% | Activity % (VEGFR-2; HepG2): 25.136% | Inhibition % (VEGFR-2; HepG2): 74.864% | Activity % (VEGFR-2; K-562): 37.495% | Inhibition % (VEGFR-2; K-562): 62.505% | Activity % (VEGFR-2; MCF7): 32.377% | Inhibition % (VEGFR-2; MCF7): 67.623%
SMILES: O=C(Cn1cnc2cc(Cl)ccc2c1=O)Nc1ccccc1 [8a, 2-(7-Chloro-4-oxoquinazolin-3(4H)-yl)-N-phenylacetamide]
Caspase-9 ± SE (caspase-9): 74.01 ± 3.92 ng/L | Caspase-9 ± SE (caspase-9; listed as R2): 74.01 ng/L | caspase-9 expression level, fold increase (caspase-9; HepG-2, vs control cells): 6.72 fold | viability at 0.195 µmol (K-562; K-562, 0.195 umol): 46.6% | cytotoxicity at 0.195 µmol (K-562; K-562, 0.195 umol, read-out: Toxicity %): 53.4% | viability at 0.391 µmol (K-562; K-562, 0.391 umol): 29.3% | cytotoxicity at 0.391 µmol (K-562; K-562, 0.391 umol, read-out: Toxicity %): 70.7% | viability at 0.781 µmol (K-562; K-562, 0.781 umol): 22% | cytotoxicity at 0.781 µmol (K-562; K-562, 0.781 umol, read-out: Toxicity %): 78% | viability at 1.563 µmol (K-562; K-562, 1.563 umol): 12.7% | cytotoxicity at 1.563 µmol (K-562; K-562, 1.563 umol, read-out: Toxicity %): 87.3% | viability at 3.125 µmol (K-562; K-562, 3.125 umol): 8.29% | cytotoxicity at 3.125 µmol (K-562; K-562, 3.125 umol, read-out: Toxicity %): 91.7% | viability at 6.25 µmol (K-562; K-562, 6.25 umol): 7.18% | cytotoxicity at 6.25 µmol (K-562; K-562, 6.25 umol, read-out: Toxicity %): 92.8% | viability at 12.5 µmol (K-562; K-562, 12.5 umol): 6.03% | cytotoxicity at 12.5 µmol (K-562; K-562, 12.5 umol, read-out: Toxicity %): 94% | viability at 25 µmol (K-562; K-562, 25 umol): 5.54% | cytotoxicity at 25 µmol (K-562; K-562, 25 umol, read-out: Toxicity %): 94.5% | IC50 (K-562; MTT, K-562, read-out: Cytotoxicity against cancer cells IC50 K-562): 188.4 ± 1.7 nM | IL-6R ± SE (IL-6R; HepG-2, at IC50 concentrations, control 44.10): 19.54 ± 1.62 ng/L | IL-6R protein level (IL-6R; HepG-2, control 44.10%): 19.54 ng/L | IL-6 ±SE (IL-6R; raw data, HepG2, control 44.10): 26.0 ng/L | fold reduction in Bcl-2 expression level (Bcl-2; HepG-2, vs control): 3.75 fold | Gene expression (fold change) Bcl-2 (Bcl-2; HepG-2, control 3.4983): 0.93 fold change and 0.9352 ± 0.09 fold change | Caspase-3 ± SE (caspase-3): 1.52 ± 0.017 ng/mL | Caspase-3 ± SE (caspase-3; listed as R2): 1.52 ng/mL | caspase-3 expression level, fold increase (caspase-3; HepG-2, vs control cells): 3.30 fold | viability at 0.195 µg/mL (HepG-2; HepG-2, 0.195 ug/ml): 45.9% | cytotoxicity at 0.195 µg/mL (HepG-2; HepG-2, 0.195 ug/ml, read-out: Toxicity %): 54.1% | viability at 0.391 µg/mL (HepG-2; HepG-2, 0.391 ug/ml): 26.4% | cytotoxicity at 0.391 µg/mL (HepG-2; HepG-2, 0.391 ug/ml, read-out: Toxicity %): 73.6% | viability at 0.781 µg/mL (HepG-2; HepG-2, 0.781 ug/ml): 16.7% | cytotoxicity at 0.781 µg/mL (HepG-2; HepG-2, 0.781 ug/ml, read-out: Toxicity %): 83.3% | viability at 1.563 µg/mL (HepG-2; HepG-2, 1.563 ug/ml): 11.8% | cytotoxicity at 1.563 µg/mL (HepG-2; HepG-2, 1.563 ug/ml, read-out: Toxicity %): 88.2% | viability at 3.125 µg/mL (HepG-2; HepG-2, 3.125 ug/ml): 8.68% | cytotoxicity at 3.125 µg/mL (HepG-2; HepG-2, 3.125 ug/ml, read-out: Toxicity %): 91.3% | viability at 6.25 µg/mL (HepG-2; HepG-2, 6.25 ug/ml): 7.88% | cytotoxicity at 6.25 µg/mL (HepG-2; HepG-2, 6.25 ug/ml, read-out: Toxicity %): 92.1% | viability at 12.5 µg/mL (HepG-2; HepG-2, 12.5 ug/ml): 6.74% | cytotoxicity at 12.5 µg/mL (HepG-2; HepG-2, 12.5 ug/ml, read-out: Toxicity %): 93.3% | viability at 25 µg/mL (HepG-2; HepG-2, 25 ug/ml): 5.9% | cytotoxicity at 25 µg/mL (HepG-2; HepG-2, 25 ug/ml, read-out: Toxicity %): 94.1% | IC50 (HepG-2; MTT, HepG-2, read-out: Cytotoxicity against cancer cells IC50 HepG-2): 187.1 ± 1.8 nM | fold increase in BAX expression level (BAX; HepG-2, vs control): 3.8 fold | BAX expression level (BAX; HepG-2, control 0.44): 1.67 fold change | Gene expression (fold change) BAX (BAX; HepG-2, control 0.4448): 1.6792 ± 0.74 fold change | TNF-alpha ±SE (TNF-alpha; HepG-2, at IC50 concentrations): 14.37 ± 0.45 ng/L | TNF-alpha ±SE (TNF-alpha; raw data, HepG2): 23.6 ng/L | viability at 0.195 µmol (MCF-7; MCF-7, 0.195 umol): 93.5% | cytotoxicity at 0.195 µmol (MCF-7; MCF-7, 0.195 umol, read-out: Toxicity %): 6.51% | viability at 0.391 µmol (MCF-7; MCF-7, 0.391 umol): 67% | cytotoxicity at 0.391 µmol (MCF-7; MCF-7, 0.391 umol, read-out: Toxicity %): 33% | viability at 0.781 µmol (MCF-7; MCF-7, 0.781 umol): 45.2% | cytotoxicity at 0.781 µmol (MCF-7; MCF-7, 0.781 umol, read-out: Toxicity %): 54.8% | viability at 1.563 µmol (MCF-7; MCF-7, 1.563 umol): 28.5% | cytotoxicity at 1.563 µmol (MCF-7; MCF-7, 1.563 umol, read-out: Toxicity %): 71.5% | viability at 3.125 µmol (MCF-7; MCF-7, 3.125 umol): 17.8% | cytotoxicity at 3.125 µmol (MCF-7; MCF-7, 3.125 umol, read-out: Toxicity %): 82.2% | viability at 6.25 µmol (MCF-7; MCF-7, 6.25 umol): 11.4% | cytotoxicity at 6.25 µmol (MCF-7; MCF-7, 6.25 umol, read-out: Toxicity %): 88.6% | viability at 12.5 µmol (MCF-7; MCF-7, 12.5 umol): 8.31% | cytotoxicity at 12.5 µmol (MCF-7; MCF-7, 12.5 umol, read-out: Toxicity %): 91.7% | viability at 25 µmol (MCF-7; MCF-7, 25 umol): 7.26% | cytotoxicity at 25 µmol (MCF-7; MCF-7, 25 umol, read-out: Toxicity %): 92.7% | IC50 (MCF-7; MTT, MCF-7, read-out: Cytotoxicity against cancer cells IC50 MCF-7): 695.5 ± 5.1 nM | % Sub-G1 (HepG-2 cells; HepG-2, cytotoxic concentration, 24 h, control 68.12): 96.3% and 96.13% | % S (HepG-2 cells; HepG-2, control 2.23): 0.52% | % G2/M (HepG-2 cells; HepG-2, control 6.52): 0.16% | % G1 (HepG-2 cells; HepG-2, control 23.14): 3.19% | Gene expression (fold change) BAX/Bcl-2 ratio (BAX/Bcl-2): 1.77 and 1.7777 ± 0.11
